Results reported in patent US11564928B1, “Cannabinoid receptor type 2 (CB2) modulators and uses thereof” (Teon Therapeutics, Inc., priority 2020, dated 2023).
Like-named read-outs stand apart in the source and are kept apart here.

What was measured:
human CB2 receptor [1] = molecular target: T1, human CB2 receptor (Homo sapiens (Human), UniProt P34972); assay: CB2 receptor cAMP assay (DiscoverX HitHunter cAMP XS+); assay type: cell-based; conditions: for Emax: CHO-K1, read-out: Max Stimulation %
Procedure: cAMP Hunter CHO-K-1 cell lines expressing human CB2 receptor (Eurofins) were expanded from freezer stocks according to standard procedures. Cells were seeded in a total volume of 20 μL into white walled, 384-well microplates and incubated at 37° C. for the appropriate time prior to testing. cAMP modulation in agonist, inverse agonist or antagonist format was determined using the DiscoverX HitHunter cAMP XS+ assay (Eurofins). For agonist determination, cells were incubated with sample in the presence of EC80 forskolin to induce response. Media was aspirated from cells and replaced with 15 μL 2:1 HBSS/10 mM Hepes: cAMP XS+Ab reagent. Intermediate dilution of sample stocks was performed to generate 4× sample in assay buffer containing 4× EC80 forskolin. 5 μL of 4× sample was added to cells and incubated at 37° C. or room temperature for 30 or 60 minutes. Final assay vehicle concentration was 1%. For inverse agonist determination, cells were preincubated with sample in the presence of EC20 forskolin. Media was aspirated from cells and replaced with 15 μL, 2:1 HBSS/10 mM Hepes: cAMP XS+Ab reagent. Intermediate dilution of sample stocks was performed to generate 4× sample in assay buffer containing 4× EC20 forskolin. 5 μL of 4× sample was added to cells and incubated at 37° C. or room temperature for 30 or 60 minutes. Final assay vehicle concentration was 1%. For antagonist determination, cells were pre-incubated with sample followed by agonist challenge at the EC80 concentration. Media was aspirated from cells and replaced with 10 μL 1:1 HBSS/Hepes: cAMP XS+Ab reagent. 5 μL of 4× compound was added to the cells and incubated at 37° C. or room temperature for 30 minutes. 5 μL of 4× EC80 agonist was added to cells and incubated at 37° C. or room temperature for 30 or 60 minutes. EC80 forksolin was included. After appropriate compound incubation, assay signal was generated through incubation with 20 μL cAMP XS+ED/CL lysis cocktail for one hour followed by incubation with 20 μL, cAMP XS+EA reagent for three hours at room temperature. Microplates were read following signal generation with a PerkinElmer Envision instrument for chemiluminescent signal detection. Compound activity was analyzed using CBIS data analysis suite (ChemInnovation, CA). For agonist mode assay, percentage activity is calculated using the following formula: % Activity=100%×(1−(mean RLU of test sample−mean RLU of MAX control)/(mean RLU of vehicle control−mean RLU of MAX control)). For inverse agonist mode assay, percentage activity is calculated using the following formula: % Inverse Agonist Activity=100%×((mean RLU of test sample−mean RLU of EC20 forskolin)/(mean RLU of forskolin positive control−mean RLU of EC20 control)). For antagonist mode assay, percentage inhibition is calculated using the following formula: % Inhibition=100%×(mean RLU of test sample−mean RLU of EC80 control)/(mean RLU of forskolin positive control−mean RLU of EC80 control). Data are analyzed and IC50 is calculated using GraphPad Prism 5 and the model “log(inhibitor) vs. response—Variable slope”.

human recombinant CB1R = human recombinant CB1R (Homo sapiens (Human), UniProt P21554); assay: CB1 receptor binding assay ([3H]CP-55,940 displacement, HEK-293 membranes)
Method in brief: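 Displacement of [3H]CP-55,940 was measured on human CB1R- or CB2R-transfected HEK-293 membranes after 120 min at 37 °C, in duplicate, with filtration and scintillation counting. For CB2R, incubation used Tris-HCl 50 mM, MgCl2 5 mM, CaCl2 1 mM, BSA 0.2%, pH 7.4. Ki values were derived from variable-slope IC50 fits using Cheng–Prusoff.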

human CB2 receptor [2] = molecular target: T1, human CB2 receptor; assay: CB2 receptor binding assay ([3H]CP-55,940 displacement, HEK-293 membranes)
[3] = membranes of HEK-293 cells with human recombinant CB1R, [3H]CP-55,940, read-out: CB1 IC50
[4] = membranes of HEK-293 cells with human recombinant CB2R, [3H]CP-55,940, read-out: CB2 IC50
[5] = cAMP Hunter CHO-K-1 cells expressing human CB2 receptor, read-out: cAMP IC50
[6] = membranes of HEK-293 cells with human recombinant CB1R, [3H]CP-55,940, class symbols, read-out: CB1 IC50
[7] = membranes of HEK-293 cells with human recombinant CB2R, [3H]CP-55,940, class symbols, read-out: CB2 IC50

T1 sequence (P34972 whole entry): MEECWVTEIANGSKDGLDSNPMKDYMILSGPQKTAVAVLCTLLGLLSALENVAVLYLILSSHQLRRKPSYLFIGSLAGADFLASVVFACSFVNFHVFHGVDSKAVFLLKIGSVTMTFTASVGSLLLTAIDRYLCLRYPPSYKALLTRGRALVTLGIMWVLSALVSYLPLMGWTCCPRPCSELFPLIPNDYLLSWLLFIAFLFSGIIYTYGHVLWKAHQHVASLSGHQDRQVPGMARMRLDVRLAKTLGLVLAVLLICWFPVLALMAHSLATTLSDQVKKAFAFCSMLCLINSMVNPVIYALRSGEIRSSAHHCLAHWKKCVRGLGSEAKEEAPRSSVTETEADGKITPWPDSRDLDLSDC
human recombinant CB1R, sequence (P21554 whole entry): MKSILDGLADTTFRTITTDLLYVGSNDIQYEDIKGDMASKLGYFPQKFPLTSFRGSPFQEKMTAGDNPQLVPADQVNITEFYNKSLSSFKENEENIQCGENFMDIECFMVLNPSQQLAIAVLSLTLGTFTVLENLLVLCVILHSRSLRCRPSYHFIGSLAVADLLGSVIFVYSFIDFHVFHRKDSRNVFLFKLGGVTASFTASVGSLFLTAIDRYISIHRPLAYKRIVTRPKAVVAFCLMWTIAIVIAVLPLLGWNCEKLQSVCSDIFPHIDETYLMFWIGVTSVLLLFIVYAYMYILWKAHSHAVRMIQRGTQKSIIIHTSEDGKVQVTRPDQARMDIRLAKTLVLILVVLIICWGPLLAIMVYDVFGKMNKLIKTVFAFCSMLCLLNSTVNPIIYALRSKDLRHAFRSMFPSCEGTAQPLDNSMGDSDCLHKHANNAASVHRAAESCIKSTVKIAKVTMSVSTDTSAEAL

Compound | IC50 (human CB2 receptor [1]) | Emax (human CB2 receptor [1]) | IC50 (human recombinant CB1R; [3]) | IC50 (human CB2 receptor [2]; [4]) | IC50 (human CB2 receptor [1]; [5]) | IC50 (human recombinant CB1R; [6]) | IC50 (human CB2 receptor [2]; [7]) | IC50 (human CB2 receptor [2]) | IC50 (human recombinant CB1R)
CC1CCC(NC(=O)c2c(O)c3cc(-c4ccc(F)cc4)cnc3n(CCN3CCOCC3)c2=O)CC1 (centres unmarked) [Compound 5, 6-(4-fluorophenyl)-4-hydroxy-N-(4-methylcyclohexyl)-1-(2-morpholinoethyl)-2-oxo-1,2-dihydro-1,8-naphthyridine-3-carboxamide] | 70 nM | 75% | 3870 nM | 6.5 nM | – | – | – | – | –
O=C(NC1CC2(CCC2)C1)c1c(O)c2cc(-c3ccc(F)cc3)cnc2n(CCN2CCOCC2)c1=O [Compound 6, 6-(4-fluorophenyl)-4-hydroxy-1-(2-morpholinoethyl)-2-oxo-N-(spiro[3.3]heptan-2-yl)-1,2-dihydro-1,8-naphthyridine-3-carboxamide] | – | – | > 10000 nM | 6.1 nM | > 1000 nM | – | – | – | –
O=C(NC1CCC(F)(F)CC1)c1c(O)c2cc(-c3ccc(F)cc3)cnc2n(CCN2CCOCC2)c1=O [Compound 7, N-(4,4-difluorocyclohexyl)-6-(4-fluorophenyl)-4-hydroxy-1-(2-morpholinoethyl)-2-oxo-1,2-dihydro-1,8-naphthyridine-3-carboxamide] | – | – | – | – | > 1000 nM | > 1000 nM | > 1000 nM | – | –
O=C(NC12CC(C1)C2)c1c(O)c2cc(-c3ccc(F)cc3)cnc2n(CCN2CCOCC2)c1=O [Compound 8, N-(bicyclo[1.1.1]pentan-1-yl)-6-(4-fluorophenyl)-4-hydroxy-1-(2-morpholinoethyl)-2-oxo-1,2-dihydro-1,8-naphthyridine-3-carboxamide] | 40 nM | 32% | > 10000 nM | 20 nM | – | – | – | – | –
CC(NC(=O)c1c(O)c2cc(-c3ccc(F)cc3)cnc2n(CCN2CCOCC2)c1=O)c1ccc(F)cc1 (centres unmarked) [Compound 9, 6-(4-fluorophenyl)-N-(1-(4-fluorophenyl)ethyl)-4-hydroxy-1-(2-morpholinoethyl)-2-oxo-1,2-dihydro-1,8-naphthyridine-3-carboxamide] | 71 nM | 7% | – | – | – | > 1000 nM | < 100 nM | – | –
COc1ccc(-c2cnc3c(c2)c(O)c(C(=O)NC2CC4(CCC4)C2)c(=O)n3CCN2CCOCC2)cc1 [Compound 10, 4-hydroxy-6-(4-methoxyphenyl)-1-(2-morpholinoethyl)-2-oxo-N-(spiro[3.3]heptan-2-yl)-1,2-dihydro-1,8-naphthyridine-3-carboxamide] | 7 nM | 82% | > 10000 nM | 7 nM | – | – | – | – | –
O=C(NC1CC2(CCC2)C1)c1c(O)c2cc(-c3ccc(Cl)cc3)cnc2n(CCN2CCOCC2)c1=O [Compound 11, 6-(4-chlorophenyl)-4-hydroxy-1-(2-morpholinoethyl)-2-oxo-N-(spiro[3.3]heptan-2-yl)-1,2-dihydro-1,8-naphthyridine-3-carboxamide] | 81 nM | 60% | – | – | – | > 1000 nM | – | 100 to 999 nM | –
COc1ccc(-c2cnc3c(c2)c(O)c(C(=O)NC24CC(C2)C4)c(=O)n3CCN2CCOCC2)cc1 [Compound 13, N-(bicyclo[1.1.1]pentan-1-yl)-4-hydroxy-6-(4-methoxyphenyl)-1-(2-morpholinoethyl)-2-oxo-1,2-dihydro-1,8-naphthyridine-3-carboxamide] | 62 nM | 67% | > 10000 nM | 17 nM | – | – | – | – | –
CC1CCC(NC(=O)c2c(O)c3cc(-c4ccc(OC(F)F)cc4)cnc3n(CCN3CCOCC3)c2=O)CC1 (centres unmarked) [Compound 15, 6-(4-(difluoromethoxy)phenyl)-4-hydroxy-N-(4-methylcyclohexyl)-1-(2-morpholinoethyl)-2-oxo-1,2-dihydro-1,8-naphthyridine-3-carboxamide] | 21 nM | 75% | > 10000 nM | 8.8 nM | – | – | – | – | –
CC1CCC(NC(=O)c2c(O)c3cc(-c4ccc(C#N)cc4)cnc3n(CCN3CCOCC3)c2=O)CC1 (centres unmarked) [Compound 16, 6-(4-cyanophenyl)-4-hydroxy-N-(4-methylcyclohexyl)-1-(2-morpholinoethyl)-2-oxo-1,2-dihydro-1,8-naphthyridine-3-carboxamide] | – | 30% | > 10000 nM | – | – | – | – | – | –
CC1CCC(NC(=O)c2c(O)c3cc(-c4ccc5c(c4)OCCO5)cnc3n(CCN3CCOCC3)c2=O)CC1 (centres unmarked) [Compound 19, 6-(2,3-dihydrobenzo[b][1,4]dioxin-6-yl)-4-hydroxy-N-(4-methylcyclohexyl)-1-(2-morpholinoethyl)-2-oxo-1,2-dihydro-1,8-naphthyridine-3-carboxamide] | 43 nM | 81% | > 10000 nM | 20 nM | – | – | – | – | –
COc1ccc(-c2cnc3c(c2)c(O)c(C(=O)NC2CCC(C)CC2)c(=O)n3CCN2CCOCC2)cc1 (centres unmarked) [Compound 20, 4-hydroxy-6-(4-methoxyphenyl)-N-(4-methylcyclohexyl)-1-(2-morpholinoethyl)-2-oxo-1,2-dihydro-1,8-naphthyridine-3-carboxamide] | 7 nM | 93% | > 10000 nM | 4.7 nM | – | – | – | – | –
COc1ccc(-c2cnc3c(c2)cc(C(=O)NC2CC4(CCC4)C2)c(=O)n3CCN2CCOCC2)cc1 [Compound 29, 6-(4-methoxyphenyl)-1-(2-morpholinoethyl)-2-oxo-N-(spiro[3.3]heptan-2-yl)-1,2-dihydro-1,8-naphthyridine-3-carboxamide] | 5 nM | 107% | > 10000 nM | 1.2 nM | – | – | – | – | –
O=C(NC1CC2(CCC2)C1)c1cc2cc(-c3ccc(OC(F)F)cn3)cnc2n(CCN2CCOCC2)c1=O [Compound 47, 6-(5-(difluoromethoxy)pyridin-2-yl)-1-(2-morpholinoethyl)-2-oxo-N-(spiro[3.3]heptan-2-yl)-1,2-dihydro-1,8-naphthyridine-3-carboxamide] | – | 48% | > 10000 nM | – | – | – | – | – | –
CC(NC(=O)c1cc2cc(-c3ccc(C#N)cn3)cnc2n(CCN2CCOCC2)c1=O)c1ccc(F)cc1 (centres unmarked) [Compound 58, 6-(5-cyanopyridin-2-yl)-N-(1-(4-fluorophenyl)ethyl)-1-(2-morpholinoethyl)-2-oxo-1,2-dihydro-1,8-naphthyridine-3-carboxamide] | – | 77% | > 10000 nM | – | – | – | – | – | –
N#Cc1ccc(C2(NC(=O)c3cc4cc(Br)cnc4n(Cc4ccc(F)cc4)c3=O)CC2)cc1 [Compound 92, 6-bromo-N-(1-(4-cyanophenyl)cyclopropyl)-1-(4-fluorobenzyl)-2-oxo-1,2-dihydro-1,8-naphthyridine-3-carboxamide] | 3.6 nM | 108% | – | – | – | – | < 100 nM | – | –
C[C@H]1CC[C@@H](NC(=O)c2c(O)c3cc(-c4ccc(F)cc4)ccc3n(CCN3CCOCC3)c2=O)CC1 [Compound 159, 6-(4-fluorophenyl)-4-hydroxy-N-((1s,4S)-4-methylcyclohexyl)-1-(2-morpholinoethyl)-2-oxo-1,2-dihydroquinoline-3-carboxamide] | – | – | – | – | – | – | < 100 nM | – | 100 to 999 nM
COc1ccc(-c2ccc3c(c2)c(O)c(C(=O)N[C@H]2CC[C@@H](C)CC2)c(=O)n3CCN2CCOCC2)cc1 [Compound 161, 4-hydroxy-6-(4-methoxyphenyl)-N-((1s,4S)-4-methylcyclohexyl)-1-(2-morpholinoethyl)-2-oxo-1,2-dihydroquinoline-3-carboxamide] | – | – | – | – | – | > 1000 nM | < 100 nM | – | –
